Measurements reported in publication PMC4536076, “Chemical Library Screening and Structure-Function Relationship Studies Identify Bisacodyl as a Potent and Selective Cytotoxic Agent Towards Quiescent Human Glioblastoma Tumor Stem-Like Cells” (PLoS ONE, 2015).
Where a name gives a salt, the structure may show the parent alone. Read-outs that look alike come from different tables or passages of the source.

Assays:
[1] = test system: quiescent TG16 GSCs; experiment: ATP-Glo dose-response, quiescent TG16 GSCs; assay type: cell-based, human; conditions: Homo sapiens; ATP Glo readout, 24 h treatment; read-out: Q TG16 GSCs EC50
Description: (§1) The EC50 value was determined for each compound by fitting the data points according to the following equation: y=Smax+Smin*(x*1/EC50)^n/1+(x*1/EC50)^n where y represents the expected response, x is the chemical compound concentration, S max and S min are the maximum and minimum responses recorded, respectively and n is the Hill coefficient. Curve fitting was performed using Microsoft Excel Solver component.
(§2) Similar dose response curves were performed using GSCs isolated from GBM of two other patients (TG16 and OB1 GSCs) grown under proliferating and quiescent conditions.

[2] = test system: fetal neural stem cells (f-NSC); experiment: ATP-Glo dose-response, fetal neural stem cells; assay type: cell-based; conditions: Homo sapiens, Neural stem cell; ATP Glo readout, 24 h treatment
[3] = test system: quiescent TG1 GSCs; conditions: primary screen, 50 μM, 24 h
How it was run: (§3)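 Cells seeded at 30 000 (proliferating) or 40 000 (quiescent) viable cells/well and treated with compound at 50 μM final, 1% DMSO, single test; hits retested in duplicate at 50 and 5 μM. ATP measured by luminescence, as percent of the mean signal of DMSO control wells.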

[4] = test system: quiescent TG1 GSCs; experiment: ATP-Glo dose-response, quiescent TG1 GSCs; assay type: cell-based, human
Description: as §1
(§4) Proliferating or quiescent TG1 cells were seeded in 50 μL of their respective media (30 000 and 40 000 viable cells/well, respectively) into 96-well opaque bottom plates (Greiner, Courtaboeuf, France). Compound treatment was performed by adding 50 μL of compound solutions (in the presence of 2% DMSO in culture medium). […] All compounds were tested in triplicate in each experiment. Independent experiments were performed at least twice for almost all of the compounds.

[5] = test system: proliferating TG16 GSCs; experiment: ATP-Glo dose-response, proliferating TG16 GSCs; assay type: cell-based, human; conditions: Homo sapiens; ATP Glo readout, 24 h treatment; read-out: P TG16 GSCs EC50
Description: as §1, §2

[6] = test system: quiescent OB1 GSCs; experiment: ATP-Glo dose-response, quiescent OB1 GSCs; assay type: cell-based, human; conditions: Homo sapiens; ATP Glo readout, 24 h treatment; read-out: Q OB1 GSCs EC50
Description: as §1, §2

[7] = test system: proliferating OB1 GSCs; experiment: ATP-Glo dose-response, proliferating OB1 GSCs; assay type: cell-based; conditions: Homo sapiens; ATP Glo readout, 24 h treatment; read-out: P OB1 GSCs EC50
Description: as §1, §2

[8] = test system: HEK 293 cells; experiment: ATP-Glo dose-response, HEK 293 cells; assay type: cell-based, human; conditions: Homo sapiens, HEK293; ATP Glo readout, 24 h treatment
Description: as §1, with “component. […]” for “component.”

[9] = test system: primary astrocytes (HA cells); experiment: ATP-Glo dose-response, primary astrocytes; assay type: cell-based, human; conditions: Homo sapiens, Astrocyte; for EC50: ATP Glo readout, 24 h treatment
[10] = test system: proliferating TG1 GSCs; experiment: ATP-Glo dose-response, proliferating TG1 GSCs; assay type: cell-based, human; conditions: Homo sapiens, 24 h
Description: as §1, §4

[11] = test system: quiescent TG1 cells; experiment: Cell viability, trypan blue staining, quiescent TG1 cells; assay type: cell-based, human; conditions: quiescent TG1 GSCs, 10 μM, 24 hours
Description: Cell mortality was evaluated by trypan blue staining (0.1% (v/v)).

[12] = test system: proliferating TG1 GSCs; conditions: primary screen, 50 μM, 24 h
How it was run: as §3

[13] = test system: Astrocytes; parameters: method as in PMID 23039130; conditions: literature, ref [104]; cited from earlier work
[14] = Solubility measurements; assay type: physicochemical; conditions: data not shown
[15] = test system: human colon cancer cell line HT29; parameters: method as in PMID 1888153; conditions: ref [58], read-out: EC50, decrease of proliferation; cited from earlier work
[16] = Homo sapiens, 24 h, ATP Glo readout, 24 h treatment, n = 3, read-out: Q TG1 GSCs EC50
[17] = ATP Glo readout, 24 h treatment, n = 3, read-out: P TG1 GSCs EC50

Compound | EC50 [1] [µM] | EC50 [2] [µM] | Activity on quiescent TG1 GSCs (hit compounds reducing ATP levels) [3] | EC50 ([4]; ATP Glo readout, 24 h treatment, n = 3, listed as Bisacodyl, read-out: Q TG1 GSCs EC50) [µM] | EC50 [4, 16] [µM] | EC50 [5] [µM] | EC50 [6] [µM] | EC50 [7] [µM] | EC50 [8] [µM] | EC50 [9] [µM] | Emax ([9]; HA cells, not due to cell death, read-out: maximum effect: reduction of ATP levels) [%] | EC50 [10, 17] [µM] | cell viability (trypan blue and 7-AAD staining) [11] | Activity on proliferating TG1 GSCs (hit compounds reducing ATP levels) [12] | EC50 [13] [µM] | EC50 ([4]; Homo sapiens, 24 h, SAR study, ATP-Glo cell survival assay, 24 h, triplicate, read-out: Quiescent TG1 GSCs EC50) [µM] | solubility [14] | EC50 ([10]; SAR study, ATP-Glo cell survival assay, triplicate, read-out: Proliferating TG1 GSCs EC50) [µM] | EC50 [15] [µM]
CC(=O)Oc1ccc(C(c2ccc(OC(C)=O)cc2)c2ccccn2)cc1 [Compound 1, 4,4'-diacetoxydiphenyl-2-pyridyl-methane] | 1.3 ± 0.1 | > 100 | yes | 1.07 ± 0.04 | ~1 | > 100 | 0.5 ± 0.1 | > 100 | > 100 | 0.6 ± 0.3 | 30 | > 100 | resulted from cell death | – | – | – | – | – | –
C=C1C(=O)O[C@H]2[C@H]1CC/C(C)=C/CC[C@@]1(C)O[C@@H]21 [Parthenolide] | – | 8.4 ± 0.2 | yes | – | 48 ± 6 | 10 ± 2 | 35 ± 11 | 18 ± 4 | 13 ± 5 | 59 ± 4 | – | 15 ± 2 | – | yes | 186 ± 10 | – | – | – | –
c1ccc(C(c2ccccc2)c2ccccn2)cc1 [Compound 6, Diphenyl-2-pyridylmethane] | – | – | – | – | – | – | – | – | – | – | – | – | – | – | – | 84.8 ± 4.1 | not due to reduced solubility | > 100 | –
C1CCC(C(CC2CCCCN2)C2CCCCC2)CC1 (centres unmarked) [Perhexilin maleate] | 21 ± 4 | 3 ± 1 | yes | – | 14 ± 3 | 11 ± 1 | 22 ± 4 | 12 ± 1 | 12 ± 1 | 12 ± 2 | – | 10 ± 1 | – | yes | – | – | – | – | ~10
CCOC(=O)C1=C(C)NC(C)=C(C(=O)OC)C1c1cccc(Cl)c1Cl (centres unmarked) [Felodipine] | 33 ± 3 | 59 ± 12 | yes | – | 30 ± 3 | 39 ± 4 | 41 ± 6 | 43 ± 5 | 55 ± 2 | 36 ± 6 | – | 38 ± 1 | – | yes | – | – | – | – | –
